Laboratory results published in the supplement of paper PMC8671470.
± gives the standard deviation of the averaged measurements.

Columns and labels:
Conditions in all cases: 72 h
HL-60 [1] = assay: area under dose-response curve (viability, 1 nM-10 uM) (fraction (0-1)); higher = more sensitive
Method in brief: (§1)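 Area under the curve, where listed, was derived from four-parameter log-logistic fits with drc and PharmacoGx. These fits used CellTiter-Glo viability from HL-60 cells in RPMI 1640 with 10% FBS, normalised to DMSO wells and wells holding 10 μM proteasome inhibitor. The full library was rescreened on 384-well plates in duplicate at five tenfold concentrations, 1–10,000 nM, with DMSO or 100 nM of one of three metabolic inhibitors, for 72 h at 37 °C, 5% CO2.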

HL-60 [2] = assay: cell viability (% survival relative to DMSO control); higher = less cytotoxic
Method in brief: as §1

THP-1 [3] = assay: cell viability (% survival relative to DMSO control, bortezomib = 0%); higher = less cytotoxic
Method in brief: (§2)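 Percent survival is reported as the mean of duplicate wells. Cells from 10 AML and 5 CML lines were plated in 384-well plates containing compounds at 1, 10, 100, 1000 or 10000 nM and kept for 72 h at 37 °C in 5% CO2. Readout used CellTiter-Glo luminescence, scaled so that vehicle equals 100% and a 10 µM positive control equals 0%.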

HL-60 [4] = assay: as above
Method in brief: as §2

KU-812 [5] = assay: as above
Method in brief: as §2

MV4-11 [6] = assay: as above
Method in brief: as §2

SHI-1 [7] = assay: as above
Method in brief: as §2

MOLM-13 [8] = assay: as above
Method in brief: as §2

Mono-Mac-6 [9] = assay: as above
Method in brief: as §2

BV-173 [10] = assay: as above
Method in brief: as §2

LAMA-84 [11] = assay: as above
Method in brief: as §2

K-562 [12] = assay: as above
Method in brief: as §2

NOMO-1 [13] = assay: as above
Method in brief: as §2

THP-1 [14] = system: THP-1
Method in brief: (§3)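 Fifteen myeloid leukaemia lines were incubated for 72 h at 37 °C with 5% CO2 across five tenfold doses from 1 to 10,000 nM, in duplicate. ATP luminescence was normalised to vehicle and to a positive control at 10 µM and fitted with a four-parameter log-logistic model. The IC50 came from these dose–response fits.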

HL-60 [15] = system: HL-60
Method in brief: as §3

KU-812 [16] = system: KU-812
Method in brief: as §3

MV4-11 [17] = system: MV4-11
Method in brief: as §3

SHI-1 [18] = system: SHI-1
Method in brief: as §3

MOLM-13 [19] = system: MOLM-13
Method in brief: as §3

Mono-Mac-6 [20] = system: Mono-Mac-6
Method in brief: as §3

BV-173 [21] = system: BV-173
Method in brief: as §3

LAMA-84 [22] = system: LAMA-84
Method in brief: as §3

K-562 [23] = system: K-562
Method in brief: as §3

NOMO-1 [24] = system: NOMO-1
Method in brief: as §3

KG-1 [25] = assay: cell viability (% survival relative to DMSO control, bortezomib = 0%); higher = less cytotoxic
Method in brief: as §2

KCL-22 [26] = assay: as above
Method in brief: as §2

HEL [27] = assay: as above
Method in brief: as §2

ML-2 [28] = assay: as above
Method in brief: as §2

KG-1 [29] = system: KG-1
Method in brief: as §3

KCL-22 [30] = system: KCL-22
Method in brief: as §3

HEL [31] = system: HEL
Method in brief: as §3

ML-2 [32] = system: ML-2
Method in brief: as §3

N#Cc1ccnc(N2C(=O)CC[C@H]2C(=O)N(c2cncc(F)c2)[C@H](C(=O)NC2CC(F)(F)C2)c2ccccc2Cl)c1 [AG-120]
HL-60 [1]
Conditions	area under dose-response curve
co-treatment: AZD3965 100 nM	< 0.0301
co-treatment: DMSO vehicle	< 0.0301
co-treatment: GSK2194069 100 nM	< 0.0301
co-treatment: pictilisib 100 nM	< 0.0301

cell viability [%], HL-60 [2]
Conditions	0.001 µM	0.01 µM	0.1 µM	1 µM	10 µM
co-treatment: AZD3965 100 nM	102 ± 4	86.8 ± 16	113 ± 6.2	91 ± 1.1	102 ± 0.68
co-treatment: DMSO vehicle	104 ± 3.2	98.74 ± 0.48	99.6 ± 6.6	97.6 ± 1.5	99.14 ± 0.77
co-treatment: GSK2194069 100 nM	93.1 ± 14	101 ± 9.3	99.8 ± 12	92.3 ± 7.1	88.3 ± 1.1
co-treatment: pictilisib 100 nM	92.9 ± 6.7	98.2 ± 11	104 ± 1.6	77.1 ± 13	98.6 ± 1.9

O=C(Nc1ccccc1)c1cc([N+](=O)[O-])ccc1Cl [GW9662]
cell viability [%]
Conditions	1 nM	10 nM	100 nM	1000 nM	10000 nM
BV-173 [10]	103	95.7	113	91.8	56.6
HL-60 [4]	90.2	98.8	98.2	106	72.6
K-562 [12]	112	102	105	108	65.4
KU-812 [5]	97.9	102	113	87.3	71.7
LAMA-84 [11]	98.7	95.9	110	101	90.5
MOLM-13 [8]	109	97	95.5	122	80.8
MV4-11 [6]	102	93.3	108	115	42.9
Mono-Mac-6 [9]	101	107	110	112	115
NOMO-1 [13]	95.6	96.4	97.3	102	91.8
SHI-1 [7]	111	104	103	107	93.8
THP-1 [3]	103	101	102	93.7	77.2

Conditions	IC50 (cell viability) [µM]
BV-173 [21]	8.53
HL-60 [15]	> 10
K-562 [23]	> 10
KU-812 [16]	> 10
LAMA-84 [22]	> 10
MOLM-13 [19]	> 10
MV4-11 [17]	8.81
Mono-Mac-6 [20]	> 10
NOMO-1 [24]	> 10
SHI-1 [18]	> 10
THP-1 [14]	> 10

CC/C=C\C[C@H]1C(=O)CC[C@@H]1CC(=O)OC [Methyl jasmonate]
cell viability [%]
Conditions	1 nM	10 nM	100 nM	1000 nM	10000 nM
BV-173 [10]	108	111	103	93.2	103
HEL [27]	97.3	99.1	114	99.5	111
HL-60 [4]	92.7	99.1	105	96.5	111
K-562 [12]	90.2	95.9	104	102	91.5
KCL-22 [26]	109	99.9	96.9	91.9	103
KG-1 [25]	115	95.7	93.9	101	105
KU-812 [5]	99.3	108	110	99.1	104
LAMA-84 [11]	95.6	100	105	98.7	110
ML-2 [28]	115	110	101	99.9	108
MOLM-13 [8]	108	113	116	94.3	96.6
MV4-11 [6]	106	104	108	105	101
Mono-Mac-6 [9]	102	101	111	96.2	107
NOMO-1 [13]	104	110	101	93	100
SHI-1 [7]	98.8	94.2	90.8	99.3	98
THP-1 [3]	103	111	101	95.3	106

Conditions	IC50 (cell viability) [µM]
BV-173 [21]	> 10
HEL [31]	> 10
HL-60 [15]	> 10
K-562 [23]	> 10
KCL-22 [30]	> 10
KG-1 [29]	> 10
KU-812 [16]	> 10
LAMA-84 [22]	> 10
ML-2 [32]	> 10
MOLM-13 [19]	> 10
MV4-11 [17]	> 10
Mono-Mac-6 [20]	> 10
NOMO-1 [24]	> 10
SHI-1 [18]	> 10
THP-1 [14]	> 10
